Data on one molecule can be found in patent US20180064702A1 (Teva Pharmaceutical Industries, Ltd., priority 2013, published 2018).

For data set [1], the system named is patients afflicted with PPMS. As to the kind of experiment: Phase II clinical trial of laquinimod in Primary Progressive Multiple Sclerosis subjects (Example 2). The conditions noted are these: daily oral 0.6 mg, 1.0 mg and 1.5 mg. The format is in vivo, human. As for the experimental part:
Study Duration • Screening phase: Up to 1 month • Treatment Phase: At least 15 months
Subjects with Primary Progressive Multiple Sclerosis (approximately 500 subjects in approximately 120 centers, with about 125 subjects per study arm).
Investigational Product Route and Dosage Form • 1. […] Placebo arm: Three capsules containing placebo (0.5/0.6 mg matching) to be administered orally once daily.
Eligible subjects are randomized in a 1:1:1:1 ratio into one of the following treatment arms: • 1. […] Matching placebo
Subjects that stopped treatment with the study drug before the completion of Month 12 visit are considered Early Treatment Discontinuation (ETD) subjects. ETD subjects continue follow-up according to scheduled visits (until Month 12).
Subjects have the following study visits: Screening visit (−1 Month), Baseline visit (Month 0), and Months 1, 2, 3, 6, 9, 12, and every three months until study termination.
The following assessments are performed at the specified time points: • 1. Vital signs are measured at each study visit. • 2. A physical examination is performed at months −1, 0, 1, 3, 6 and every 6 months thereafter, ETD (if applicable), and until study completion. • 3. The following safety clinical laboratory tests are performed: • a. Complete blood count (CBC) with differential at all scheduled visits. • b. Serum chemistry (including electrolytes, liver enzymes, urea, creatinine, glucose, total protein, albumin, direct and total bilirubin, Creatinephosphokinase (CPK), serum conventional C-reactive protein (CRP), fibrinogen and pancreatic amylase)—at all scheduled visits. Calculated Glomerular Filtration Rate (GFR) at screening and prior to each MRI scan. • c. Lipid profile (total cholesterol, HDL, LDL, triglycerides)—at baseline (month 0) and every 12 months until completion/ETD. • d. Serum TSH, T3 and Free T4 at baseline (month 0), month 6 and every 12 months until completion/ETD. • e. Urinalysis at the screening visit. • f. Serum human choriogonadotropin beta (β-hCG) in women of child-bearing potential is performed at each scheduled study visit. • g. Urine β-hCG test is performed in women of child-bearing potential at baseline (month 0) and at each scheduled study visit thereafter. • h. Starting after visit Month 3 a β-hCG test is performed in women of child-bearing potential every 28 (±2) days. In case of suspected pregnancy the study drug is discontinued. • 4. Additional blood for analysis of serology for Hepatitis B and C viruses at baseline visit • 5. […] ECG is performed at months −1 (screening), 0 (baseline, three recordings 10 min apart, before first dose), 1, 2, 3, 6, 12 and every 12 months until completion/ETD. • 8. Chest X-ray is performed at month −1, (if not performed within 6 months prior to the screening visit). • 9. Adverse Events (AEs) are monitored throughout the study. • 10. Concomitant Medications are monitored throughout the study. • 11. All subjects—conventional MRI scans with gadolinium at Months 0 (14 to 7 days before Baseline), and 12. In case of ETD, or completion, an additional MRI is performed, provided no study MRI was done within the previous 3 months. • 12. In case of steroid treatment, study MRI is performed before such treatment or delayed to allow a minimum of 14 days but not more than 28 days from the completion of the steroid course. • 13. All subjects—MRI including 3D T1-w acquisitions of the brain and cervical cord, to measure whole brain volume, cord atrophy, thalamic atrophy, cortical atrophy and white matter (WM) atrophy at Months 0 (Baseline), 12 or ETD (if applicable). • 14. Neurological evaluations, including Expanded Disability Status Scale (EDSS), Timed 25-Foot Walk (T25FW)/9-Hole Peg test (9HPG), Ambulation Index (AI), Functional systems (FS), are performed at months −1, 0, and every 3 months thereafter, ETD visit (if applicable) and until completion visit. • 15. […]

Data set [2] has as its system patients afflicted with a progressive form of multiple sclerosis (PPMS, SPMS, PRMS). As to the kind of experiment: Phase III clinical trial of oral laquinimod in progressive forms of multiple sclerosis (Example 1). The conditions noted are these: daily oral 0.6 mg, 0.9 mg, 1.2 mg and 1.8 mg. The format is in vivo, human. The source says:
3-5 Years (2-4 years recruitment duration). Progressive Forms of Multiple Sclerosis, including Primary Progressive Multiple sclerosis (PPMS) and Secondary Progressive Multiple Sclerosis (SPMS). […] Matching placebo for laquinimod arm: matching placebo for laquinimod administered once daily. Approximately 140-240 sites and approximately 1300-2300 subjects. Inclusion Criteria • 1. Subjects must be 25-65 years old. • 2. Subjects must have a confirmed and documented diagnosis of Primary Progressive (according to McDonald), Progressive-Relapsing or Secondary Progressive (clinical definition, without relapses in the previous year) Multiple Sclerosis disease course. • 3. Subjects must be ambulatory with converted Kurtzke EDSS score of 3.0-6.5. • 4. Subjects must have a Pyramidal Functional Systems (FS) score of ≧2. • 5. Subjects must have a threshold Timed 25-Foot Walk ([…]) score. Exclusion Criteria • 1. Subjects with RRMS. • 2. Subjects with clinically significant or unstable medical or surgical condition that would preclude safe and complete study participation, as determined by medical history, physical examination, ECG, laboratory tests or chest X-ray. • 3. […] Confirmed disability progression at 3 and 6 months. This study assesses the efficacy of various daily doses of laquinimod as compared to placebo in multiple sclerosis subjects.

The conditions of data set [3]: in vivo; cited from earlier work.
For data set [4], the system named is patients having Relapsing-Remitting Multiple Sclerosis (RRMS). The following applies: cited from earlier work.
The subject of data set [5] is genes related to antigen presentation and corresponding inflammatory pathways. The conditions noted are these: mainly via the NFkB pathway; cited from earlier work.

Each structure is given as a SMILES string.

Regarding `CCN(C(=O)c1c(O)c2c(Cl)cccc2n(C)c1=O)c1ccccc1` [laquinimod], the “accumulation of physical disability” value in data set [1] (vs placebo control group) is recorded as “reduces the accumulation of physical disability”; in data set [1] (vs the patient at baseline), “reduces the accumulation of physical disability”; in data set [2] (PPMS, vs placebo control group) it was “reduces the accumulation of physical disability”; in data set [2] (PPMS, vs the patient at baseline), “reduces the accumulation of physical disability”; in data set [2] (PRMS, vs placebo control group), “reduces the accumulation of physical disability”; in data set [2] (PRMS, vs the patient at baseline) it was “reduces the accumulation of physical disability”. For the same molecule, the “accumulation of physical disability” value is “reduces the accumulation of physical disability” in data set [2] (SPMS, vs placebo control group); “reduces the accumulation of physical disability” in data set [2] (SPMS, vs the patient at baseline); “reduces the accumulation of physical disability” in data set [2] (progressive form of multiple sclerosis, vs placebo control group); “reduces the accumulation of physical disability” in data set [2] (progressive form of multiple sclerosis, vs the patient at baseline). The “brain atrophy (percentage change in brain volume from Baseline to month 12)” value in data set [1] (vs placebo control group) and in data set [1] (vs the patient at baseline) was “reduces brain atrophy” throughout. For the same molecule, the cognitive function result in data set [1] (vs placebo control group) and in data set [1] (vs the patient at baseline) was “improves cognitive function” each time. Also, the “cumulative number of new T2 lesions” value in data set [1] (vs placebo control group) and in data set [1] (vs the patient at baseline) was “reduces the cumulative number of new T2 lesions” throughout. Further, in data set [3], the oral bioavailability entry is on record as “high”. The “EDSS progression of disability” value in data set [4] (RRMS patients) was “consistently reduced EDSS progression of disability”. In addition, in data set [4] (RRMS patients), the brain atrophy entry is given as “reduced brain atrophy”. For the same molecule, in data set [4] (RRMS patients), the “non-conventional MRI metrics” value is “increased non-conventional MRI metrics suggestive of preservation of tissue architecture”. Besides, the “safety and tolerability profile” value in data set [4] (two phase III trials, relapsing-remitting multiple sclerosis patients) is “favorable safety and tolerability profile”. Further, in data set [5], the “suppression of genes related to antigen presentation” value is “induced suppression of genes related to antigen presentation and corresponding inflammatory pathways”.
